From US20030064960A1, “Medicine for inducing osteogenesis” (priority 1999, published 2003)

Tests used:
[1] = tested on: RC-I,II cell (cultured cell derived from rat calvaria); assay: Osteogenesis inducing activity on cultured cell derived from rat calvaria (northern blotting of ALP, COL1 and OC genes); type: cell-based
Procedure: (1) Preparation of Cultured Cell Derived from Rat Calvaria
Cultured cell derived from rat calvaria was isolated from Wister rats (obtained from sankyo-rabo) of three days old by following method.
The rats were killed, decapitated and their calvarias were picked out. The tissue was flaked by a tweezer and suspended into a solution for enzyme treatment, containing 0.04% of EDTA, collagenase (crude type 1A: SIGMA: 0.1%) and trypsin (0.05%). The sample was treated in the enzyme solution for 30 min under temperature of 37° C. Then, the enzyme solution was harvested and cells extricated into the enzyme solution was harvested by centrifugation (RC-I). The enzyme solution was added again and digested at 37° C. for 30 min. Cells extricated into the enzyme solution was designated as RC-II.
The RC-I and RC-II thus obtained were mixed and used for following experiments. The cell mixture of RC-I and RC-II was designated as RC-I,II cell in following description. […] The RC-I and RC-II described above hardly expressed alkaline phosphatase (ALP), type 1 collagen (COL1) and osteocarcin (OC) gene. The genes described above are used for marker genes of osteoblast (T. R. Arnett et al, Methods in Bone Biology, 1988, Chapman & Hall).
(3) Estimation of Osteogenesis Inducing Activity of the Lipid-bound Glycosaminoglycan
HA-PE produced as described above was dissolved in hank's solution at concentration of 5 μg/ml and 2 ml of hank's solution containing HA-PE was poured into polystyrene culture dish with diameter of 10 cm. The dish was coated by settling the dish for 16 hours at 4° C. The dish treated by hank's solution without HA-PE was used for control.
The RC-I,II cell suspension, prepared as described above, was poured on the dish at the density of 1×10^4 cells/cm^2. The cell was cultured in α-minimum eagle medium (MEM: GIBCO) solution containing 1% anti-biotics, anti-mycoplasma solution (containing 50 μg/ml ascorbic acid and 5 mM β-glycerophosphate, GIBCO) and 10% fatal bovine serum (FBS: GIBCO).
At the time just after cell reached to confluent, one week after confluent and two weeks after confluent, total RNA of the cell was extracted by guanidine-phenol-chloroform method. The expression of ALP, COL1 and OC genes was analyzed by northern blotting method. The expression of these genes are used as an indicator of osteoblast differentiation. In FIG. 1, Et-Br indicates control sample obtained by staining of ribosomal RNA by ethydium bromide. Moreover, digitalized result calculated from northern blotting of FIG. 1 by Quantity One program (TOYOBO) was shown in FIG. 2 as a value standardized against the control described above.

[2] = hyaluronic acid with a molecular weight of 20,000 to 60,000, at a concentration of 0.5 mg/ml; cited from earlier work
[3] = RC-I,II cell cultured in dish coated with 5 μg/ml HA-PE, northern blotting at confluent, one and two weeks after confluent, vs dish treated without HA-PE

Row | Substance | induction of osteocyte differentiation ([1]; RC-I,II cell cultured in HA-PE coated dish (5 μg/ml)) | expression of ALP gene [1, 3] | expression of COL1 gene [1, 3] | expression of OC gene [1, 3] | osteogenesis induction activity [2]
1 | L-(α-phosphatidyl)ethanolamine dipalmytoyl conjugated hyaluronic acid [HA-PE] | significant induction of osteocyte differentiation | predominant increase | predominant increase | predominant increase | 
2 | hyaluronic acid |  |  |  |  | osteogenesis induction activity
